From patent US4562190A, “Benzothiazolone derivatives, processes for preparation thereof and pharmaceutical compositions comprising the same” (Fujisawa Pharmaceutical Co., Ltd., priority 1983, dated 1985)
Where two headings read alike, the source gives them in different places. Values belong to the compound of their own block, whether it stands above or below them.

Key:
blood pressure = assay: Antihypertensive activity (DOCA-treated, uninephrectomized rats, oral); type: in vivo, male Wistar rats; details: dose 1.0 mg/kg, DOCA/saline uninephrectomized rats, mean blood pressure 150-200 mmHg
Procedure: Five-week old male Wistar rats were uninephrectomized under anesthesia. Deoxycorticosterone acetate (DOCA) (30 mg/kg), suspended in peanut oil, was injected subcutaneously twice a week and 1% saline was substituted for the drinking water. Animals with mean blood pressure 150-200 mmHg were used for experiment between 5 and 7 weeks after surgery.
The test compound was administered orally. Blood pressure was measured at the femoral artery by means of a pressure transducer and recorded as electrically integrated values of mean arterial pressure.

[1] = system: left ventricular pressure (dp/dt max) and heart rate; assay: Cardiotonic activity (anesthetized dogs, i.v.); type: in vivo, Mongrel dogs; details: dosage 1 mg/kg (printed "1."), injected into femoral vein; pentobarbital-anesthetized dogs; vs predosing period
Procedure: Mongrel dogs of either sex were anesthetized with sodium pentobarbital, 35 mg/kg, i.p.. The animals were allowed to breathe spontaneously. The left carotid artery was isolated and a catheter (USCI, #8F) filled with heparinized saline was inserted and advanced into the left ventricle. The catheter was connected to a pressure transducer (Nihonkohden, MPU-0.5A) to measure the left ventricular pressure, from which dp/dt max was derived by analog computing. To measure the systemic blood pressure the left femoral artery was cannulated. The blood pressure pulses was used to trigger a heart rate meter. Another catheter was positioned in the vena cave through right femoral vein for injection of drug. Systemic blood pressure, left ventricular pressure, dp/dt max and heart rate were recorded simultaneously on a polygram (Nihonkohden, RJG-4008).
Test compound was dissolved in dimethyl sulfoxide (0.04 ml/kg) and injected into the femoral vein. The parameters after dosing were compared with those during the predosing period.
Test results were represented in terms of percentage of dp/dt max changes (dp/dt M.C.) and percentage of heart rate changes (H.R.C.) calculated by following formulae. [formula]

platelet aggregation = assay: Inhibitory activity on platelet aggregation; type: cell-based; details: Oryctolagus cuniculus, rabbit platelet rich plasma, 37° C.
Procedure: Platelet rich plasma (PRP) which contains 6.5-7.5×10^8 platelet/ml was prepared from rabbit blood. To the 200 μl of PRP, 5 μl of calcium chloride (1mM) and 50 μl of pH 7.4 Tris-acetate solution (5 mM) containing 120mM NaCl and test compound was added successively, and then stirred for 2 min. at 37° C. To the solution 5 μl of adenosine diphosphate (ADP) (2.5 μM) or collagen (2.5 μg/ml) was added as an aggregation inducer. Aggregation was measured by using an aggregometer (NKK HEMA TRACER 1).

Compound: CC1CC(=O)NN=C1c1ccc2sc(=O)n(C)c2c1 (centres unmarked) [test compound .circle.1, 3-Methyl-5-(4-methyl-6-oxo-1,4,5,6-tetrahydro-3-pyridazinyl)benzothiazolone]
- Effect Max (mean ratio of maximum decrease of blood pressure) (blood pressure): 63%

Compound: CCOC(=O)Cn1c(=O)sc2ccc(C3=NNC(=O)CC3C)cc21 (centres unmarked) [test compound .circle.2, 3-Ethoxycarbonylmethyl-5-(4-methyl-6-oxo-1,4,5,6-tetrahydro-3-pyridazinyl)benzothiazolone]
- H.R.C. (percentage of heart rate changes) [1]: 22%
- dp/dt M.C. (percentage of dp/dt max changes) [1]: 63%

- IC50 (platelet aggregation; inducer ADP (2.5 μM), read-out: ID50, ADP): 61 nM
- IC50 (platelet aggregation; inducer collagen (2.5 μg/ml), read-out: ID50, Collagen): 35 nM
Compound: CC1CC(=O)NN=C1c1ccc2sc(=O)[nH]c2c1 (centres unmarked) [test compound .circle.3, 5-(4-Methyl-6-oxo-1,4,5,6-tetrahydro-3-pyridazinyl)benzothiazolone]
